PubChem BioAssay (NCI)
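Each compound was tested at five concentrations against cells in 96-well plates for 48 hours. GI50: concentration for 50% inhibition of growth. At the TGI there is no net growth.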

What was measured:
Assay in all cases: DTP human tumour cell line panel, 48 h
OVCAR-3 ovarian = tested on: OVCAR-3 ovarian
KM12 colon = tested on: KM12 colon
DU-145 prostate = tested on: DU-145 prostate
NCI-H460 lung = tested on: NCI-H460 lung
HCT-15 colon = tested on: HCT-15 colon
SF-539 CNS = tested on: SF-539 CNS
OVCAR-8 ovarian = tested on: OVCAR-8 ovarian
SN12C renal = tested on: SN12C renal
CCRF-CEM leukemia = tested on: CCRF-CEM leukemia
MDA-MB-231 breast = tested on: MDA-MB-231 breast

## COc1cc2cc(C(=O)N3C[C@H](CCl)c4c3cc(N)c3ccccc43)[nH]c2c(OC)c1OC
OVCAR-3 ovarian
  GI50: 5 nM
  TGI: 936 nM
KM12 colon
  GI50: 11.5 nM
  TGI: 92.2 nM
DU-145 prostate
  GI50: < 5 nM
  TGI: < 5 nM
NCI-H460 lung
  GI50: 5 nM
  TGI: 6.7 nM
HCT-15 colon
  TGI: > 50000 nM
SF-539 CNS
  TGI: 3300 nM
OVCAR-8 ovarian
  TGI: > 50000 nM
SN12C renal
  GI50: 6.98 nM
  TGI: 58.2 nM
CCRF-CEM leukemia
  GI50: 5 nM
  TGI: > 50000 nM
MDA-MB-231 breast
  GI50: 5 nM
  TGI: 25.4 nM

## COc1cc(S(=O)(=O)Nc2ccc(C(=O)/C=C/c3ccc(O)cc3)cc2)ccc1F
OVCAR-3 ovarian
  GI50: > 100000 nM
  TGI: > 100000 nM
KM12 colon
  GI50: > 100000 nM
  TGI: > 100000 nM
DU-145 prostate
  GI50: > 100000 nM
  TGI: > 100000 nM
NCI-H460 lung
  GI50: > 100000 nM
  TGI: > 100000 nM
HCT-15 colon
  GI50: > 100000 nM
  TGI: > 100000 nM
SF-539 CNS
  GI50: > 100000 nM
  TGI: > 100000 nM
OVCAR-8 ovarian
  GI50: > 100000 nM
  TGI: > 100000 nM
SN12C renal
  GI50: 2610 nM
  TGI: 89700 nM
CCRF-CEM leukemia
  GI50: > 100000 nM
  TGI: > 100000 nM
MDA-MB-231 breast
  GI50: 26.7 nM
  TGI: 9120 nM
